Test results: US12077503B2, “Substituted cyclic amides and their use as herbicides” (FMC CORPORATION, priority 2015, dated 2024)

Tests used:
Assay type in all cases: in vivo
[1] = tested on: barnyardgrass (Echinochloa crus-galli); assay: Test G Pre-Emergence Protocol; settings: Echinochloa crus-galli, pre-emergence, 312 h, evaluated after 13 days; for pest or weed control at 15.625 g/ha: 15.625 g ai/ha, read-out: Barnyard grass damage rating (100=total damage to plant; 0=no damage to plant); for pest or weed control at 62.5 g/ha: 62.5 g ai/ha, 100=total damage to plant, 0=no damage to plant, read-out: plant damage rating, Barnyardgrass; for pest or weed control at 250 g/ha: 250 g ai/ha, read-out: Barnyardgrass damage rating (100=total damage to plant; 0=no damage to plant)
How it was run: (§1)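 Test compound in 0.5% Tween 20 acetone/water (50:50) was applied at three rates (15.625, 62.5, 250 g/ha) to soil sown one day earlier. After 13 days plants were scored for injury, where 0 means unaffected and 100 means completely damaged.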

corn (Zea mays) [2] = assay: Test G Pre-Emergence Protocol; settings: Zea mays, pre-emergence, 312 h, evaluated after 13 days; for plant injury at 15.625 g/ha: 15.625 g ai/ha; for plant injury at 15.625 g/ha / plant injury at 250 g/ha: read-out: Corn damage rating (100=total damage to plant; 0=no damage to plant); for plant injury at 62.5 g/ha: 62.5 g ai/ha, 100=total damage to plant, 0=no damage to plant, read-out: plant damage rating, Corn; for plant injury at 250 g/ha: 250 g ai/ha
How it was run: as §1

[3] = tested on: giant foxtail (Setaria faberi); assay: Test G Pre-Emergence Protocol; settings: Setaria faberi, pre-emergence, 312 h, evaluated after 13 days; for pest or weed control at 15.625 g/ha: 15.625 g ai/ha; for pest or weed control at 15.625 g/ha / pest or weed control at 250 g/ha: read-out: Foxtail, Giant damage rating (100=total damage to plant; 0=no damage to plant); for pest or weed control at 62.5 g/ha: 62.5 g ai/ha, 100=total damage to plant, 0=no damage to plant, read-out: plant damage rating, Foxtail, Giant; for pest or weed control at 250 g/ha: 250 g ai/ha
How it was run: as §1

[4] = tested on: ivy-leaved morning glory (Ipomoea hederacea); assay: Test G Pre-Emergence Protocol; settings: Ipomoea, pre-emergence, 312 h, evaluated after 13 days; for pest or weed control at 15.625 g/ha: 15.625 g ai/ha, read-out: Morning-glory, Ivy-leaved damage rating (100=total damage to plant; 0=no damage to plant); for pest or weed control at 62.5 g/ha: 62.5 g ai/ha, 100=total damage to plant, 0=no damage to plant, read-out: plant damage rating, Morningglory, Ivy-leaved; for pest or weed control at 250 g/ha: 250 g ai/ha, read-out: Morningglory, Ivy-leaved damage rating (100=total damage to plant; 0=no damage to plant)
How it was run: as §1

[5] = tested on: redroot pigweed (Amaranthus retroflexus); assay: Test G Pre-Emergence Protocol; settings: Amaranthus retroflexus, pre-emergence, 312 h, evaluated after 13 days; for pest or weed control at 15.625 g/ha: 15.625 g ai/ha; for pest or weed control at 15.625 g/ha / pest or weed control at 250 g/ha: read-out: Pigweed, Redroot damage rating (100=total damage to plant; 0=no damage to plant); for pest or weed control at 62.5 g/ha: 62.5 g ai/ha, 100=total damage to plant, 0=no damage to plant, read-out: plant damage rating, Pigweed, Redroot; for pest or weed control at 250 g/ha: 250 g ai/ha
How it was run: as §1

[6] = tested on: velvetleaf (Abutilon theophrasti); assay: Test G Pre-Emergence Protocol; settings: Abutilon theophrasti, pre-emergence, 312 h, evaluated after 13 days; for pest or weed control at 15.625 g/ha: 15.625 g ai/ha; for pest or weed control at 15.625 g/ha / pest or weed control at 250 g/ha: read-out: Velvetleaf damage rating (100=total damage to plant; 0=no damage to plant); for pest or weed control at 62.5 g/ha: 62.5 g ai/ha, 100=total damage to plant, 0=no damage to plant, read-out: plant damage rating, Velvetleaf; for pest or weed control at 250 g/ha: 250 g ai/ha
How it was run: as §1

[7] = tested on: barnyardgrass (Echinochloa crus-galli); assay: Test G Post-Emergence Protocol; settings: Echinochloa crus-galli, post-emergence, 312 h; for pest or weed control at 15.625 g/ha: 15.625 g ai/ha, evaluated after 13 days (100=total damage to plant; 0=no damage to plant), read-out: Barnyardgrass damage rating; for pest or weed control at 62.5 g/ha: 62.5 g ai/ha, read-out: Barnyardgrass damage rating (100=total damage to plant; 0=no damage to plant); for pest or weed control at 62.5 g/ha / pest or weed control at 250 g/ha: evaluated after 13 days; for pest or weed control at 250 g/ha: 250 g ai/ha, read-out: damage to plant, Barnyardgrass (100=total damage to plant; 0=no damage to plant)
How it was run: (§2)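 Sow in soil; grow 8 d (24/16 °C, 14 h light, 65% humidity); spray 15.625/62.5/250 g/ha in acetone:water 50:50 + 0.5% Tween 20; grow on, water twice daily; score damage 0–100 at 13 d.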

corn (Zea mays) [8] = assay: Test G Post-Emergence Protocol; settings: Zea mays, post-emergence, 312 h; for plant injury at 15.625 g/ha: 15.625 g ai/ha, evaluated after 13 days (100=total damage to plant; 0=no damage to plant), read-out: Corn damage rating; for plant injury at 62.5 g/ha: 62.5 g ai/ha, read-out: Corn damage rating (100=total damage to plant; 0=no damage to plant); for plant injury at 62.5 g/ha / plant injury at 250 g/ha: evaluated after 13 days; for plant injury at 250 g/ha: 250 g ai/ha, read-out: damage to plant, Corn (100=total damage to plant; 0=no damage to plant)
How it was run: as §2

[9] = tested on: giant foxtail (Setaria faberi); assay: Test G Post-Emergence Protocol; settings: Setaria faberi, post-emergence, 312 h; for pest or weed control at 15.625 g/ha: 15.625 g ai/ha, evaluated after 13 days (100=total damage to plant; 0=no damage to plant), read-out: Foxtail, Giant damage rating; for pest or weed control at 62.5 g/ha: 62.5 g ai/ha, read-out: Foxtail, Giant damage rating (100=total damage to plant; 0=no damage to plant); for pest or weed control at 62.5 g/ha / pest or weed control at 250 g/ha: evaluated after 13 days; for pest or weed control at 250 g/ha: 250 g ai/ha, read-out: damage to plant, Foxtail, Giant (100=total damage to plant; 0=no damage to plant)
How it was run: as §2

[10] = tested on: ivy-leaved morning glory (Ipomoea hederacea); assay: Test G Post-Emergence Protocol; settings: Ipomoea, post-emergence, 312 h; for pest or weed control at 15.625 g/ha: 15.625 g ai/ha, evaluated after 13 days (100=total damage to plant; 0=no damage to plant), read-out: Morningglory, Ivy-leaved damage rating; for pest or weed control at 62.5 g/ha: 62.5 g ai/ha, read-out: Morningglory, Ivy-leaved damage rating (100=total damage to plant; 0=no damage to plant); for pest or weed control at 62.5 g/ha / pest or weed control at 250 g/ha: evaluated after 13 days; for pest or weed control at 250 g/ha: 250 g ai/ha, read-out: damage to plant, Morningglory, Ivy-leaved (100=total damage to plant; 0=no damage to plant)
How it was run: as §2

[11] = tested on: redroot pigweed (Amaranthus retroflexus); assay: Test G Post-Emergence Protocol; settings: Amaranthus retroflexus, post-emergence, 312 h; for pest or weed control at 15.625 g/ha: 15.625 g ai/ha, evaluated after 13 days (100=total damage to plant; 0=no damage to plant), read-out: Pigweed, Redroot damage rating; for pest or weed control at 62.5 g/ha: 62.5 g ai/ha, read-out: Pigweed, Redroot damage rating (100=total damage to plant; 0=no damage to plant); for pest or weed control at 62.5 g/ha / pest or weed control at 250 g/ha: evaluated after 13 days; for pest or weed control at 250 g/ha: 250 g ai/ha, read-out: damage to plant, Pigweed, Redroot (100=total damage to plant; 0=no damage to plant)
How it was run: as §2

[12] = tested on: velvetleaf (Abutilon theophrasti); assay: Test G Post-Emergence Protocol; settings: Abutilon theophrasti, post-emergence, 312 h; for pest or weed control at 15.625 g/ha: 15.625 g ai/ha, evaluated after 13 days (100=total damage to plant; 0=no damage to plant), read-out: Velvetleaf damage rating; for pest or weed control at 62.5 g/ha: 62.5 g ai/ha, read-out: Velvetleaf damage rating (100=total damage to plant; 0=no damage to plant); for pest or weed control at 62.5 g/ha / pest or weed control at 250 g/ha: evaluated after 13 days; for pest or weed control at 250 g/ha: 250 g ai/ha, read-out: damage to plant, Velvetleaf (100=total damage to plant; 0=no damage to plant)
How it was run: as §2

| Structure (SMILES) | pest or weed control at 15.625 g/ha [1] | pest or weed control at 62.5 g/ha [1] | pest or weed control at 250 g/ha [1] | plant injury at 15.625 g/ha (corn (Zea mays) [2]) | plant injury at 62.5 g/ha (corn (Zea mays) [2]) | plant injury at 250 g/ha (corn (Zea mays) [2]) | pest or weed control at 15.625 g/ha [3] | pest or weed control at 62.5 g/ha [3] | pest or weed control at 250 g/ha [3] | pest or weed control at 15.625 g/ha [4] | pest or weed control at 62.5 g/ha [4] | pest or weed control at 250 g/ha [4] | pest or weed control at 15.625 g/ha [5] | pest or weed control at 62.5 g/ha [5] | pest or weed control at 250 g/ha [5] | pest or weed control at 15.625 g/ha [6] | pest or weed control at 62.5 g/ha [6] | pest or weed control at 250 g/ha [6] | pest or weed control at 15.625 g/ha [7] | pest or weed control at 62.5 g/ha [7] | also measured |
| --- | --- | --- | --- | --- | --- | --- | --- | --- | --- | --- | --- | --- | --- | --- | --- | --- | --- | --- | --- | --- | --- |
| CSc1nccc(NC(=O)[C@@H]2C(=O)N(C)C[C@H]2c2ccc(C(F)(F)F)cc2)n1 (racemic) [Compound 1516] | 0% | 0% | 0% | 0% | 0% | 0% | 0% | 0% | 0% | 0% | 0% | 0% | 0% | 0% | 0% | 0% | 0% | 0% | 0% | 0% | pest or weed control at 250 g/ha [7]: 0%; plant injury at 15.625 g/ha (corn (Zea mays) [8]): 0%; plant injury at 62.5 g/ha (corn (Zea mays) [8]): 0%; plant injury at 250 g/ha (corn (Zea mays) [8]): 0%; pest or weed control at 15.625 g/ha [9]: 0%; pest or weed control at 62.5 g/ha [9]: 0%; pest or weed control at 250 g/ha [9]: 0%; pest or weed control at 15.625 g/ha [10]: 0%; pest or weed control at 62.5 g/ha [10]: 0%; pest or weed control at 250 g/ha [10]: 0%; pest or weed control at 15.625 g/ha [11]: 0%; pest or weed control at 62.5 g/ha [11]: 0%; pest or weed control at 250 g/ha [11]: 0%; pest or weed control at 15.625 g/ha [12]: 0%; pest or weed control at 62.5 g/ha [12]: 0%; pest or weed control at 250 g/ha [12]: 0% |
| CN1C[C@@H](c2ccc(C(F)(F)F)cc2)[C@H](C(=O)Nc2[nH]ncc2C#N)C1=O (racemic) [Compound 1551] | 0% | 0% | 0% | 0% | 0% | 0% | 0% | 0% | 0% | 0% | 0% | 0% | 0% | 0% | 0% | 0% | 0% | 0% | 0% | 0% | pest or weed control at 250 g/ha [7]: 0%; plant injury at 15.625 g/ha (corn (Zea mays) [8]): 0%; plant injury at 62.5 g/ha (corn (Zea mays) [8]): 0%; plant injury at 250 g/ha (corn (Zea mays) [8]): 10%; pest or weed control at 15.625 g/ha [9]: 0%; pest or weed control at 62.5 g/ha [9]: 0%; pest or weed control at 250 g/ha [9]: 0%; pest or weed control at 15.625 g/ha [10]: 0%; pest or weed control at 62.5 g/ha [10]: 0%; pest or weed control at 250 g/ha [10]: 0%; pest or weed control at 15.625 g/ha [11]: 0%; pest or weed control at 62.5 g/ha [11]: 0%; pest or weed control at 250 g/ha [11]: 0%; pest or weed control at 15.625 g/ha [12]: 0%; pest or weed control at 62.5 g/ha [12]: 0%; pest or weed control at 250 g/ha [12]: 0% |
